Results reported in ChEMBL document CHEMBL1201862, “PubChem BioAssay data set” (2004).
The source made the active and inactive calls.

How the values were obtained:
[1] = target: Beta-galactosidase (Escherichia coli, UniProt Q8VNN2); assay: Dose response counterscreen for EBI2 assay utilizing the enzyme, b-galactosidase.; assay type: functional
[2] = target: T1, Sentrin-specific protease 8 (Homo sapiens, UniProt Q96LD8); assay type: functional
T1 sequence (Q96LD8 whole entry): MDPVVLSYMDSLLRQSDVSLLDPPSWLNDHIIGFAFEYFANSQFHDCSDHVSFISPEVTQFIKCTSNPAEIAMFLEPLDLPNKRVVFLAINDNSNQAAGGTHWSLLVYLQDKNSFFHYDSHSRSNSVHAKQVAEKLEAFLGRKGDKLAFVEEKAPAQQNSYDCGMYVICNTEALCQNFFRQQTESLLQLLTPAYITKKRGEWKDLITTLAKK

[3] = target: T1, Sentrin-specific protease 8; assay type: functional; remark: listed apart in the source
[4] = growth suppression of PTEN-null colon cells, dose response, cell-based, HCT116 PTEN knockout (AID 1047); assay type: functional;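 also: HCT116 colon tumor cells with PTEN knocked out; cells exposed to compound for 60 hours before readout; potency for loss of cell viability measured by luminescence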
[5] = target: Heat shock protein HSP 90-alpha (Homo sapiens, UniProt P07900); assay type: functional, organism-based
[6] = target: T2, Ubiquitin-conjugating enzyme E2 N (Homo sapiens, UniProt P61088); assay type: functional;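 also: Dose-response confirmation in a TR-FRET assay detecting UBC13-driven polyubiquitin chain formation, inhibition measured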
T2 sequence (P61088 whole entry): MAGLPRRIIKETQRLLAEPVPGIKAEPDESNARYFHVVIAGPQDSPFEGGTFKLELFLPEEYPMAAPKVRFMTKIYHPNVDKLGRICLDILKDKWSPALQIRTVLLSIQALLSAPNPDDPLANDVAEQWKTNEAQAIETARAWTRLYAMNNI

[7] = tested on: Vero; assay: cells; assay type: functional; conditions: Chlorocebus sabaeus
[8] = cytotoxicity in HEK-293T cells, dose response, cytotoxicity control for TCR NF-kB inhibitor project, luminescence, T-cell screen hits (AID 489026); assay type: functional, cell-based;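 also: cells exposed to compound about 14 hours before the viability readout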
[9] = C. albicans growth with fluconazole, confirmation, fluorescence, retest (AID 2467); assay type: functional, cell-based
[10] = target: Eukaryotic translation initiation factor 4E (Mus musculus, UniProt P63073); assay: eIF4E–eIF4G protein interaction inhibitors, dose response, biochemical, TR-FRET (AID 855); assay type: functional;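 also: potency for disrupting eIF4E binding to eIF4GI seen as loss of FRET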
[11] = tested on: INS1; assay: beta cell apoptosis inhibitors, cytokine rescue, dose response, luminescence, retest (AID 449756); assay type: functional, cell-based; conditions: Rattus norvegicus;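 also: cell death triggered by IL-1 beta plus TNF-alpha plus IFN-gamma mixture; protective hits raise ATP signal compared with cytokine alone wells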
[12] = target: T3, Apoptotic protease-activating factor 1 (Homo sapiens, UniProt O14727); assay type: functional
T3 sequence (O14727 whole entry): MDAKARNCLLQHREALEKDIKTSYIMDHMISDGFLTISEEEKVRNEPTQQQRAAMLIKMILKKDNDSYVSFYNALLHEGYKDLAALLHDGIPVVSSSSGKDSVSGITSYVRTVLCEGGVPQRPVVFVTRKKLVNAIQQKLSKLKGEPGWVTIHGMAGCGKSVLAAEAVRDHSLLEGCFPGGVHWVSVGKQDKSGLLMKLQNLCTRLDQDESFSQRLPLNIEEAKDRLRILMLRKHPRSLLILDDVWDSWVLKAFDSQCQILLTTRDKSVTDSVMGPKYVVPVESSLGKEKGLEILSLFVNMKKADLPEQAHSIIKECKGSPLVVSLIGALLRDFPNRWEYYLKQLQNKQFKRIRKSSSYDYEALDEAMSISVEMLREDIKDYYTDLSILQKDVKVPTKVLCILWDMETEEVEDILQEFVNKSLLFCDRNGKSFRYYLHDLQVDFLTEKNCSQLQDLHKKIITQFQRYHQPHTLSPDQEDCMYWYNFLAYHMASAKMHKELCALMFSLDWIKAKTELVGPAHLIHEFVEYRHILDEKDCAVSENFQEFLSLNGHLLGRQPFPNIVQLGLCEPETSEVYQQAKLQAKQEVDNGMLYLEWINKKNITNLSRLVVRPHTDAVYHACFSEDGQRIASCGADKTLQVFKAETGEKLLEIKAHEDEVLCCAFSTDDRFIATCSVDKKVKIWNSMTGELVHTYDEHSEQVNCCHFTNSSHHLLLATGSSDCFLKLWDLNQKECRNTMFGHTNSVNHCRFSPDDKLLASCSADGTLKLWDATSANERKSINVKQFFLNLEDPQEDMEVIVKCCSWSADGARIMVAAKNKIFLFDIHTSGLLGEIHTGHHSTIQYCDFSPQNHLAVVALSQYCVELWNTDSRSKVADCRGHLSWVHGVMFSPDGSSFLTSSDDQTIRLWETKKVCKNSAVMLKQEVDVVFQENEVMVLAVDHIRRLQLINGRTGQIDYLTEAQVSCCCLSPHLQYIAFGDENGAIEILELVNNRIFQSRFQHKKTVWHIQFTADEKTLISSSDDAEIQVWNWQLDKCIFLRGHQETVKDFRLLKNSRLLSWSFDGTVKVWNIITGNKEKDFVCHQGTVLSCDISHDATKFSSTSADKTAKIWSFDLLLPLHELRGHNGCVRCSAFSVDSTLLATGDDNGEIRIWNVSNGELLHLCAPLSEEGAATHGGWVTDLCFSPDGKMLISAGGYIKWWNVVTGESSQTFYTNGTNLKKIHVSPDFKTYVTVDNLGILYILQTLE

[13] = NIH-3T3 fibroblast cytotoxicity, dose response, cytotoxicity control, cell-based, fluorescence, Alamar Blue, secondary assay (AID 2327); assay type: functional;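 also: NIH-3T3 mouse fibroblasts cultured with fluconazole at 8 µg/mL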
[14] = growth suppression of beta-catenin-knockout colon cells, dose response, cell-based, HCT116, human colon tumor (AID 1045); assay type: functional;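 also: HCT116 colon tumor cells with beta catenin knocked out; cells exposed to compound for 60 hours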
[15] = target: T4, Protein RecA (Mycobacterium tuberculosis, UniProt P9WHJ3); assay: Fluorescence Cell-Free Homogeneous Dose Retest to Identify Inhibitors of RecA-Intein Splicing Activity. [Related pubchem assays (depositor defined):AID2097, AID2223, AID489010, AID492950]; assay type: functional
T4 sequence (P9WHJ3 whole entry): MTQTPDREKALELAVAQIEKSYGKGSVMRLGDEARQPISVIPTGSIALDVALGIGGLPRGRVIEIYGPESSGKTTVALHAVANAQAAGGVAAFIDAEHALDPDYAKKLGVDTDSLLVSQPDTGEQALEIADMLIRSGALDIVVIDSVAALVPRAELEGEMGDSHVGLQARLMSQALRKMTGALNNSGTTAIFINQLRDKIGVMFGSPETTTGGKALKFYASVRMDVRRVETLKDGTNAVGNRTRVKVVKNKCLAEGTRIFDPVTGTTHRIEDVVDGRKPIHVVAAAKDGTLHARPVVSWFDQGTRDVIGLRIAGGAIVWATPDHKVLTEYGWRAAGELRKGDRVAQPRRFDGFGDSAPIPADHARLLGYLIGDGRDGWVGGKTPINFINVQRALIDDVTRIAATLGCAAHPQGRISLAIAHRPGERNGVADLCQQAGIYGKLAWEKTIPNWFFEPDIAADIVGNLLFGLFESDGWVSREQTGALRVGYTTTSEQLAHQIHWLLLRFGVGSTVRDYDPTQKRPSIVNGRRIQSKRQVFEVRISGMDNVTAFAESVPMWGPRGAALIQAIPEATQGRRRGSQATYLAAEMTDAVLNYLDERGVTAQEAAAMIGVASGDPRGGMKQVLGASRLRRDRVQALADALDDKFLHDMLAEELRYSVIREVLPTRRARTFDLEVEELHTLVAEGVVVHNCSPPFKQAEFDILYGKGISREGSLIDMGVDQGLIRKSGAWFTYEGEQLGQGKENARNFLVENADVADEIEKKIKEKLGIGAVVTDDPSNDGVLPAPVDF

[16] = target: T5, Replicative DNA helicase DnaB (Mycobacterium tuberculosis, UniProt P9WMR3); assay: DnaB intein splicing inhibitors, dose response, biochemical, cell-free fluorescence (AID 449749); assay type: functional
T5 sequence (P9WMR3 whole entry): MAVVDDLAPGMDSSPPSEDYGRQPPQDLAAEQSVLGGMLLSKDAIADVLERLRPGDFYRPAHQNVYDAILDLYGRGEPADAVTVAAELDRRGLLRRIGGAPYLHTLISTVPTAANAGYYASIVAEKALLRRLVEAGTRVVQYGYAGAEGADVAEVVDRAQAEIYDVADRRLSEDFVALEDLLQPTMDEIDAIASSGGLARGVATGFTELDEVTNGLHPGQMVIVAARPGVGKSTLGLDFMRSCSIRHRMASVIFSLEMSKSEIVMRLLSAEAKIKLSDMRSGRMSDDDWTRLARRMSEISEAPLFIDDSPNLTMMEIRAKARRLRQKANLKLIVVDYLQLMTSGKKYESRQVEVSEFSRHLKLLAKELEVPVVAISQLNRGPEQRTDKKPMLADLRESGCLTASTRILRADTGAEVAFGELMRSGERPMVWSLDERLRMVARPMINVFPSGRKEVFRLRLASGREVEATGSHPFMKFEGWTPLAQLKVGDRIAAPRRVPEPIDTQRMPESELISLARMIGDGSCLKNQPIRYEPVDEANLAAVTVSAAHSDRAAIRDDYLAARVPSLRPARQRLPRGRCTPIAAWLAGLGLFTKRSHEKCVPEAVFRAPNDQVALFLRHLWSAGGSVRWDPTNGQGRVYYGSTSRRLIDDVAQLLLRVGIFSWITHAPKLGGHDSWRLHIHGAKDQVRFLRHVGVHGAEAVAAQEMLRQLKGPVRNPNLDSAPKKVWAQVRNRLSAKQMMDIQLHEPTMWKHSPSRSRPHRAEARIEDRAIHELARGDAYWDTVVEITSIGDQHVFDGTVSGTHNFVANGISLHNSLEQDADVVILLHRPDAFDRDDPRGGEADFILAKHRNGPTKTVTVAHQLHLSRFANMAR

[17] = target: Large T antigen (Simian virus 40, UniProt P03070); assay type: functional, Betapolyomavirus macacae;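 also: Confirmatory-stage PubChem screen for compounds that inhibit SV40 T antigen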
[18] = THP-1 cell cytotoxicity, dose response, cytotoxicity control for Vif-APOBEC3G degradation inhibitor project, THP-1 cells (AID 1117359); assay type: functional; conditions: Human immunodeficiency virus 1, THP-1
[19] = inhibitors of clade B AD8 Env fusion, dose response, cell-based, cherry-pick (AID 652062); assay type: functional;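 also: luciferase signal from cell-cell fusion driven by HIV-1 clade B AD8 Env; potency is for inhibitors of fusion seen as a drop in luminescence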
[20] = ZM109 Env clade C HIV-1 fusion inhibitors, dose response, HeLa effector, CEM target cells, luciferase, cherry-pick (AID 652058); assay type: functional, cell-based
[21] = P. falciparum Dd2 growth inhibitors, dose response, SYBR Green, dry powder samples (AID 1159566); assay type: functional, cell-based;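 also: potency for growth inhibition with lower SYBR green DNA signal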
[22] = P. falciparum 3D7-ScDHODH growth inhibitors, dose response, SYBR Green, dry powder samples (AID 1159570); assay type: functional, cell-based;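 also: parasite growth measured after 72 hours of compound exposure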
[23] = P. falciparum Dd2 growth inhibitors, dose response, SYBR Green, cherry-picked samples (AID 1159567); assay type: functional, cell-based
[24] = HepG2 cell cytotoxicity, dose response, cytotoxicity control, plate reader, dry powder samples (AID 1159569); assay type: functional, cell-based;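 also: inhibitor potency with signal falling toward the positive control level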
[25] = P. falciparum ATP4 D1247Y mutant growth inhibitors, dose response, NITD609-resistant line, SYBR Green, dry powder (AID 1159571); assay type: functional, cell-based;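 also: parasites synchronized at ring stage by sorbitol before testing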

Beta-galactosidase, sequence (Q8VNN2 whole entry): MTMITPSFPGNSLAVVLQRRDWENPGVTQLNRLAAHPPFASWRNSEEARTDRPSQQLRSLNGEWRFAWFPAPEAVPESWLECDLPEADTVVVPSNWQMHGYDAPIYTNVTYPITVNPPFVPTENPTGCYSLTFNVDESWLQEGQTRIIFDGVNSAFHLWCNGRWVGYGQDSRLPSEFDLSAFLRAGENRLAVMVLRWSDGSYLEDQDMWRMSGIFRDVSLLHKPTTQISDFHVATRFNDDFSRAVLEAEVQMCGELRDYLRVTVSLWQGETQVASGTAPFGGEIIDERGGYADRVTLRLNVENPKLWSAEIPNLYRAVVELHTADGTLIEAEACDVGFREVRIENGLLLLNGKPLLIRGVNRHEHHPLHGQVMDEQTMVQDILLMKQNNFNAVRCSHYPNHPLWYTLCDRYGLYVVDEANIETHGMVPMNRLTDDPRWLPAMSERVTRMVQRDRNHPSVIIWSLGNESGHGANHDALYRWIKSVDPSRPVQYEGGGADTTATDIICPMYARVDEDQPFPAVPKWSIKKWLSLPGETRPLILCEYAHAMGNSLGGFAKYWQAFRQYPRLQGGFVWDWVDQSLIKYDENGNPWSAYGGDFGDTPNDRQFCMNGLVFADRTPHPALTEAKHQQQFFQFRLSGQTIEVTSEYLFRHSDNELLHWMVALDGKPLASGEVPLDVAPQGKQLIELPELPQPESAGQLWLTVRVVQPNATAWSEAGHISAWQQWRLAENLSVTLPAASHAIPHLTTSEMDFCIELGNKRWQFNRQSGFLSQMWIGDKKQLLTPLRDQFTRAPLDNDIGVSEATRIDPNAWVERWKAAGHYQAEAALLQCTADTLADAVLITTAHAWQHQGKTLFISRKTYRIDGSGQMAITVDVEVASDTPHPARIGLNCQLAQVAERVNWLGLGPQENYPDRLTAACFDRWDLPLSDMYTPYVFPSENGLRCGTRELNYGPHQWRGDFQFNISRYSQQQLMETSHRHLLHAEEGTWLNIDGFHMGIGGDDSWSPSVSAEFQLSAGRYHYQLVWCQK
Large T antigen, sequence (P03070 whole entry): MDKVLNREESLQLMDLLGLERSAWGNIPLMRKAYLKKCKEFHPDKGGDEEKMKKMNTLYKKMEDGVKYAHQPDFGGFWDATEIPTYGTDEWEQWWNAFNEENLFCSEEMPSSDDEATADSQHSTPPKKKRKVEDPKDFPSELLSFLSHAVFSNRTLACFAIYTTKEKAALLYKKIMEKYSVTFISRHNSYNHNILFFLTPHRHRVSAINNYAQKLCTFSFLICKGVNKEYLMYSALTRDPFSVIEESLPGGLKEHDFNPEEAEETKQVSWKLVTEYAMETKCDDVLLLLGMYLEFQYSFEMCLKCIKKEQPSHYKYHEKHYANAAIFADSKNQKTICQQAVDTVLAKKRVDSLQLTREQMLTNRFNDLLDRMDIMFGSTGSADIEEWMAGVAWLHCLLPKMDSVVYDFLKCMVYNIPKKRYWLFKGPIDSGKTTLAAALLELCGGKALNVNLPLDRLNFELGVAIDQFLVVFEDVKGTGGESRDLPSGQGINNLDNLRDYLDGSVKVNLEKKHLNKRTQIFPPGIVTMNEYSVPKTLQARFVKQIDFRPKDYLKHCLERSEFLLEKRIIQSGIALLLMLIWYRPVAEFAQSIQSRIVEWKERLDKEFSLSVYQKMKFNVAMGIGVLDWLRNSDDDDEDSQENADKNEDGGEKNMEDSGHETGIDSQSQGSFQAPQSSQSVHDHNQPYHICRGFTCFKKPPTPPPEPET
Eukaryotic translation initiation factor 4E, sequence (P63073 whole entry): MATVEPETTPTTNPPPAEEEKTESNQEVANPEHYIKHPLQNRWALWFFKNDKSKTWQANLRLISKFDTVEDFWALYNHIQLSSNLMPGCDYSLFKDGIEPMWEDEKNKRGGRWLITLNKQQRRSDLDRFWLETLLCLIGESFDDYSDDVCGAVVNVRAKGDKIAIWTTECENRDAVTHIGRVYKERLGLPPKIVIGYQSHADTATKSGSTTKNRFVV

SMILES: CCOC(=O)c1cnc(SCC(=O)Nc2cc(C(F)(F)F)ccc2N2CCOCC2)nc1N
- IC50 [1]: > 80 µM (inactive)

SMILES: COc1ccc(/C=C/C(=O)N2CCN(c3ccccn3)CC2)cc1
- IC50 [1]: > 80 µM (inactive)

SMILES: Cc1cc2c(NC(=O)CC(C)(C)CC(=O)O)cccc2nn1
- IC50 [2]: 15.1 µM (active)
- IC50 [3]: 8.03 µM (active)

SMILES: CCCCCCCCCCCCCCCC[n+]1cccc(C(=O)N(CC)CC)c1
- EC50 [4]: 6.46 µM (active)
- AC50 [5]: 2.89 µM (active)
- IC50 [6]: > 20 µM (inactive)
- CC50 [7]: 18.1 µM (active)
- IC50 [8]: 24.8 µM (inactive)
- EC50 [9]: > 38 µM (not active)
- IC50 [10]: 28.9 µM (active)
- AC50 [11]: 4.92 µM (active)
- IC50 [12]: 21.5 µM (active)
- EC50 [13]: 41.8 µM (active)
- EC50 [14]: 5.92 µM (active)

SMILES: COc1ccc(OCC(=O)N2CCN(c3nnc(-c4ccccc4)c4ccccc34)CC2)cc1
- IC50 [1]: > 80 µM (inactive)

SMILES: CCOc1cc(NC2CS(=O)(=O)CC2O)c(OCC)cc1NC(=O)c1ccccc1 (stereo not given)
- IC50 [2]: 34.7 µM (active)
- IC50 [3]: 45.9 µM (active)
- EC50 [15]: > 380 µM (inactive)
- AC50 [16]: 52.8 µM (active)
- IC50 [17]: 31.1 µM (active)

SMILES: O=C(Nc1ccc(Br)cn1)C1CCN(S(=O)(=O)c2cccs2)CC1
- CC50 [18]: > 40 µM (active)

SMILES: N#Cc1cccc(Oc2ccc(S(=O)(=O)N3CCCC3)cn2)c1
- CC50 [18]: > 40 µM (active)

SMILES: C[C@@H]1CCCCO[C@H](CN(C)C)[C@H](C)CN([C@@H](C)CO)C(=O)c2cc(NS(=O)(=O)c3cn(C)cn3)ccc2O1
- AC50 [19]: 2.6 µM (active)
- AC50 [20]: 1.36 µM (active)

SMILES: CNC[C@@H]1Oc2cc(C#Cc3cccnc3)ccc2S(=O)(=O)N([C@H](C)CO)C[C@H]1C
- AC50 [21]: 1.02 µM (active)
- AC50 [22]: 2.13 µM (active)
- AC50 [23]: 1.61 µM (active)
- AC50 [24]: 93.8 µM (active)
- AC50 [25]: 0.984 µM (active)

SMILES: CN(C)CC(=O)N1C[C@@H]2N[C@H](C1)[C@@H]2c1ccc(/C=C/c2ccccc2)cc1
- AC50 [21]: 1.94 µM (active)
- AC50 [22]: 4.57 µM (active)
- AC50 [23]: 2.01 µM (active)
- AC50 [24]: 23.2 µM (active)
- AC50 [25]: 4.64 µM (active)

SMILES: C[C@H](CO)N1C[C@H](C)[C@H](CN(C)C(=O)Cc2ccncc2)Oc2cc(C#CC3CCCC3)ccc2S1(=O)=O
- AC50 [21]: 2.28 µM (active)
- AC50 [22]: 4.97 µM (active)
- AC50 [23]: 2.13 µM (active)
- AC50 [24]: 97 µM (active)
- AC50 [25]: 4.96 µM (active)

SMILES: C[C@H]1CN([C@@H](C)CO)C(=O)c2cc(C#Cc3cccc(F)c3)cnc2O[C@@H]1CN(C)C(=O)C1CCCCC1
- AC50 [21]: 0.495 µM (active)
- AC50 [22]: 1.37 µM (active)
- AC50 [23]: 0.686 µM (active)
- AC50 [24]: 22.1 µM (active)
- AC50 [25]: 0.742 µM (active)
